The text below walks through data of US9290529B2, “Carbonic anhydrase inhibitors and method of their production” (USTAV ORGANICKE CHEMIE A BIOCHEMIE AKADEMIE VED CESKE …, priority 2011, dated 2016).

Series [1] addresses T1, human carbonic anhydrase II (hCA II) (Homo sapiens, UniProt P00918).
T1 construct: purchased Sigma Aldrich C6165
Description: Colorimetric carbonic anhydrase inhibition assay (CO2 hydration, phenol red), hCA II. In kind it is biochemical. The conditions noted are these: 0° C., HEPES pH 7.0. On the procedure: The compounds were assayed for inhibition activity of two isoforms of human carbonic anhydrase: hCA II and hCA IX. The human carbonic anhydrase II (HCA II) was purchased from Sigma Aldrich (Cat. No. C6165) in the form of lyophilized protein, which was dissolved before use in 10 mmol·l^−1 HEPES pH 7.0 to a concentration of 300 μmol·l^−1 and further diluted as required. Human carbonic anhydrase IX (HCA IX) was prepared by recombinant expression system in insect (Drosophila expression system, Invitrogen). […] This protein was further purified from media by chelating chromatography carrier His-Select Nickel Affinity Gel (Sigma, Cat No. P6611) and gel chromatography (Superdex 200 GL 30/300, GE Healthcare) according to the manufacturer's recommendations.
The principle of the method is based on measuring the rate of acidification of the solution that is observed as the color-shift of the acid-base-indicator (fenol red). The reaction was conducted in a glass tube placed in an ice bath (0° C., all stock solutions and enzymes were kept at the same temperature). […] This was followed by a CO2 saturation (stream flow 50 ml/min.) using a needle (18 G) up to color transition of fenol-red from red to yellow (typically 60 seconds by default). […] End point of reaction was determined by visual comparison with reference tube containing acid-base indicator (0.01% (wt./vol.) Fenol-red) and the pH adjusted to 7.0. […] Molar activity was calculated according to the formula:
[formula] where tB is the time of negative control without enzyme and tS is the time measured with an enzyme sample (and inhibitor), nprot is the number of moles of protein present in the sample. The value of IC50 for the inhibitor concentration corresponds inhibitor contraction required to decrease the specific activity to half of the value of non-inhibited enzyme. Selectivity towards CA IX inhibitor was calculated as the ratio of IC50 values for inhibition of HCA II against the value of IC50 for inhibition CA IX enzyme.

Series [2] deals with CEM-DNR. Briefly: MTT cytotoxicity assay, CEM-DNR. To be noted: 72 h. In kind it is cell-based, human. The source says:
(§1) One of the parameters used as the basis for colorimetric assays is the metabolic activity of viable cells. For example, a microtiter assay which uses the tetrazolium salt MTT is now widely used to quantitate cell proliferation and cytotoxicity (Hájduch et al., Cytotechnology, 19, 1996, 243-245). For instance, this assay is used in drug screening programs and in chemosensitivity testing. Because tetrazolium salts are cleaved only by metabolically active cells, these assays exclusively detect viable cells. In the case of the MTT assay, yellow soluble tetrazolium salt is reduced to a coloured water-insoluble formazan salt. After it is solubilized, the formazan formed can easily and rapidly be quantified in a conventional ELISA plate reader at 570 nm (maximum absorbancy). The quantity of reduced formazan corresponds to the number of vital cells in the culture.
(§2) All cells were purchased from the […] (ATCC), unless otherwise indicated: the CEM line are highly chemosensitive T-lymphoblastic leukemia cells, K562 cells were derived from patient with […] with bcr-abl translocation, A549 line is lung adenocarcinoma, HCT116 is colorectal tumor cell line and its p53 gene knock-down counterpart (HCT116p53−) is a model of human cancers with p53 mutation frequently associated with poor prognosis. The daunorubicin resistant subline of CEM cells (CEM-DNR bulk) and paclitaxel resistant subline K562-tax were selected in our laboratory by the cultivation of maternal cell lines in increasing concentrations of daunorubicine or paclitaxel, respectively (Noskova et al., Neoplasma 49, 2002, 418). The CEM-DNR bulk cells overexpress MRP-1 protein, while K562-tax cells overexpress P-glycoprotein, both proteins belong to family of ABC transporters and are involved in primary and/or acquired multidrug resistance phenomenon (Noskova et al., Neoplasma 49, 2002, 418). The cells were maintained in Nunc/Corning 80 cm^2 plastic tissue culture flasks and cultured in cell culture medium (DMEM/RPMI 1640 with 5 g/l glucose, 2 mM glutamine, 100 U/ml penicillin, 100 μg/ml streptomycin, 10% fetal calf serum, and NaHCO3).
(§3) This assay was performed according to Hajduch et al., Anti-Cancer Drugs 10, 1997, 1007. Cell suspensions were prepared and diluted according to the particular cell type and the expected target cell density (2 500-30 000 cells/well based on cell growth characteristics). Cells were added by pipette (80 μl) into 96-well microtiter plates. Inoculates were allowed a pre-incubation period of 24 h at 37° C. and 5% CO2 for stabilization. Four-fold dilutions, in 20-μl aliquots, of the intended test concentration were added to the microtiter plate wells at time zero. All test compound concentrations were examined in duplicate. Incubation of the cells with the test compounds lasted for 72 h at 37° C., in a 5% CO2 atmosphere at 100% humidity. At the end of the incubation period, the cells were assayed using MTT. Aliquots (10 μl) of the MTT stock solution were pipetted into each well and incubated for a further 1-4 h. After this incubation period the formazan produced was dissolved by the addition of 100 μl/well of 10% aq SDS (pH=5.5), followed by a further incubation at 37° C. overnight. The optical density (OD) was measured at 540 nm with a Labsystem iEMS Reader MF. Tumor cell survival (TCS) was calculated using the following equation: TCS=(ODdrug-exposed well/mean ODcontrol wells)×100%. The TCS50 value, the drug concentration lethal to 50% of the tumor cells, was calculated from appropriate dose-response curves.
In general terms: Tetrazolium dyes change colour on reduction, which living cells bring about.

For series [3], the system named is A549. Description: MTT cytotoxicity assay, A549. In kind it is cell-based, human. The conditions noted are these: 72 h.
Text: as §1, §2, §3

The test system of series [4] is K562. Briefly: MTT cytotoxicity assay, K562. In kind it is cell-based, human. The conditions noted are these: 72 h.
Text: as §1, §2, §3

Series [5] concerns K562-TAX. Briefly: MTT cytotoxicity assay, K562-TAX. In kind it is cell-based, human. The conditions noted are these: 72 h.
Text: as §1, §2, §3

Series [6] has as its system HCT116p53−/−. Description: MTT cytotoxicity assay, HCT116p53−/−. In kind it is cell-based, human. To be noted: 72 h.
Text: as §1, §2, §3

The test system of series [7] is BJ. Briefly: MTT cytotoxicity assay, BJ. In kind it is cell-based. The conditions noted are these: 72 h.
Text: as §1, §3

For series [8], the system named is NMRI female mice. Description: Dose finding study (MTD, DLT), single intraperitoneal dose. On the procedure:
Both compounds were dissolved in 10% dimethylsulfoxide/water (vol/vol) at stock concentration of 10 mg/ml and applied intraperitoneally to NMRI female mice (minimum 3/group) in ascending doses until the MTD was reached. Animals were housed in specific pathogen free conditions, water and food ad libitum.

Series [9] can be described thus: Orientational pharmacokinetics, serum concentrations by HPLC. To be noted: intraperitoneally at the MTD, female NMRI mice.
Description: The ability of compounds to achieve therapeutically relevant concentrations in biological fluids was tested in orientational pharmacokinetics experiment. […] The blood was collected on ice and processed for serum separation within 60 minutes after sampling. Serum was evaporated to dryness on a device ThermoScientific SPD SpeedVac (72 h, 50° C.) until analyzed. Residues were precipitated by the 225 μl of acetonitrile with an addition of 25 μl of 10% SDS (w/w in water), then vortexed for 5 min and centrifuged 5 min at 14000 RPM at a room temperature. Aliquot of the supernatant was transferred into a 250 μl autosampler vial. […] Sensitivity range 0.2 or 0.02 A.U.F.S. (Absorbance Units Full Scale). An Ion-pair reverse phase chromatographic method with an isocratic elution 300 μl/min was used. Sample injection: 20 μl.

As for “1-methylenesulfamide-1,7-dicarba-closo-dodecaborane [CB-19]”, the IC50 – broadly, the concentration that inhibits the measured activity by half – is 8.9 µM in [1]; 100 ± 0.1 µM in series [2]; at least 100 µM in series [3]; 81 ± 3.3 µM in series [4]; 86.7 ± 12.7 µM in [5]; 78.3 ± 6.5 µM in series [6]. Also, the half-maximal inhibitory concentration (IC50) in series [7] was at least 100 µM.

In the case of “1-methylenesulfamide-3,3′-commo-bis(1,2-dicarba-3-cobalta(III)-closo-dodecabor)ate (1-) [CB-5]”, the half-inhibitory concentration (IC50) in [1] was 3.7 µM; in series [3], at least 100 µM; in [5], 66.4 ± 8 µM; in series [6], 64.7 ± 9.1 µM; in series [7] it was at least 100 µM.

For the substance “1-methylenesulfamide-9-phenyl-1,2-dicarba-closo-dodecaborane and 1-methylene-sulfamide-12-phenyl-1,2-dicarba-closo-dodecaborane [CB-8]”, the 50% inhibitory concentration (IC50) in series [1] turned out to be 2.44 µM; in [2], 96.8 ± 3.3 µM; in series [3], 96 ± 6.2 µM; in [4], 71.3 ± 4.2 µM; in [5] it was 79.6 ± 10.9 µM; in [6], 86.6 ± 7.5 µM. The same substance displayed a half-maximal inhibitory concentration (IC50) in series [7] of at least 100 µM.

Turning to “1-methylensulfamide-1,2-dicarba-closo-dodekaborane [CB-1]”, the concentration for half-maximal inhibition (IC50) is 2.4 µM in series [1]; 79 ± 8.9 µM in series [2]; 94.9 ± 4.3 µM in series [3]; 60.1 ± 3 µM in [4]; 81.5 ± 11 µM in series [5]; 62 ± 2.7 µM in series [6]. For the same substance, the IC50 in [7] was at least 100 µM.

For the substance “1-sulfamide-closo-1-carbadodecaborate (1-) [CB-3]”, the concentration for half-maximal inhibition (IC50) in series [3], in series [4], in [5], in series [6] and in series [7] was at least 100 µM throughout.

For “7-methylensulfamide-8-phenyl-(7,8-nido-dikarbaundekabor)ate (1-) [CB-6]”, the IC50 in series [1] came to 39.1 µM; in series [2] it was 98.1 ± 3 µM; in series [3], 77.8 ± 10.8 µM; in [4], 27.5 ± 7.1 µM; in series [5] it was 56.9 ± 15.1 µM; in [6], 24.2 ± 3.2 µM. The 50% inhibitory concentration (IC50) in series [7] was at least 100 µM.

“7-methylensulfamide-(7,8-nido-dicarbaundekaborate) (1-) [CB-2]”: the 50% inhibitory concentration (IC50) in series [1] is 4.6 µM; in series [2] it was 96.7 ± 3.8 µM; in [3], at least 100 µM; in series [4], at least 100 µM; in series [5] it was 99.9 ± 0.2 µM; in series [7] it was at least 100 µM.

On to “8-butyloxysulfamide-3,3′-commo-bis(decahydro-1,2-dicarba-3-cobalta(III)-closo-dodekabor)ate (1-) [CB-16]”, for which the IC50 in series [1] was 0.68 µM; in [2], 95.1 ± 7.9 µM; in series [3], at least 100 µM; in series [5], 95.8 ± 4.4 µM; in series [6] it was 78.4 ± 3.9 µM; in [7], at least 100 µM. For the same substance, the “dose limiting toxicity (DLT)” value in series [8] (mouse, in vivo, ip) is “somnolence, apathy and local irritation”. Moreover, the “maximum tolerated dose (MTD)” value in [8] (single dose, intraperitoneally, NMRI female mice) turned out to be 166 mg/kg. In series [9], this substance displayed a T1/2 of 5 h. Further, the “pharmacokinetics under in vivo conditions” value in series [9] is “linear pharmacokinetics”.

Consider “8-diethyleneoxysulfamide-3,3′-commo-bis(decahydro-1,2-dicarba-3-cobalta(III)-closo-dodekabor)ate (1-) [CB-17]”, for which the concentration for half-maximal inhibition (IC50) in series [1] is 12 µM; in [2], at least 100 µM; in [3], at least 100 µM; in series [4], at least 100 µM; in [5] it was at least 100 µM; in [6], at least 100 µM. The substance also registered a concentration for half-maximal inhibition (IC50) in series [7] of at least 100 µM.

Take “8-ethylaminomethylsulfamide-8″-methoxy-3,3′-commo-bis(decahydro-1,2-dicarba-3-cobalta(III)-closo-dodecabor)ate (1-) [CB-15]”: the 50% inhibitory concentration (IC50) in series [1] came out at 14 µM; in [2] it was 47.9 ± 7.6 µM; in series [3] it was 33.7 ± 7.7 µM; in series [4], 17.7 ± 0.7 µM; in series [5], 16.6 ± 1.2 µM; in series [6], 17.6 ± 0.9 µM. Moreover, in series [7], the IC50 was 65.2 ± 4.4 µM.

“8-propylenesulfamide-7-phenyl-(7,8-nido-dicarbaundecabor)ate (1-) [CB-13]”: the IC50 in series [1] worked out at 4 µM; in [2], 68 ± 1.6 µM; in [3], 86.5 ± 4.6 µM; in [4], 71.8 ± 1.4 µM; in series [5], 64.2 ± 4.5 µM; in [6] it was 61.3 ± 4.9 µM. Inhibition in series [7] was half-maximal at 88.4 ± 6.1 µM (IC50).

For “9-sulfamide-9′-amine-2,2′-commo-bis(1,7,9-trikarba-2-ferra(II)-kloso-dodekabor)ane [CB-12]”, the IC50 was 14.9 µM in series [1]; at least 100 µM in [2]; at least 100 µM in series [3]; at least 100 µM in [4]; at least 100 µM in series [5]; at least 100 µM in series [6]. The concentration for half-maximal inhibition (IC50) in series [7] was at least 100 µM.

Take “10-sulfamide-9′-amine-2,2′-commo-(1,7,10-tricarba-1′,7′,9′-tricarba-2-ferra (II)-closo-dodekabor)ane [CB-10]”: the concentration for half-maximal inhibition (IC50) in [1] is 67.9 µM; in series [2] it was at least 100 µM; in series [3], at least 100 µM; in [5], 73.6 ± 11.1 µM; in series [7] it was at least 100 µM.

“Di(methylenesulfamide)-1,7-dicarba-closo-dodecaborane [CB-20]”: the IC50 in [1] was 1.6 µM; in [3], at least 100 µM; in [5], 96.3 ± 5.8 µM; in series [6], at least 100 µM; in [7] it was at least 100 µM.
